Results taken from ChEMBL document CHEMBL3259719, “Discovery and Optimization of Tetramethylpiperidinyl Benzamides as Inhibitors of EZH2” (ACS Med Chem Lett, 2014).

What was measured:
[1] = target: T1, Histone-lysine N-methyltransferase EZH2 (Homo sapiens, UniProt Q15910); assay: Inhibition of wild type EZH2 (unknown origin)
Target sequence in this assay (Q15910 whole entry): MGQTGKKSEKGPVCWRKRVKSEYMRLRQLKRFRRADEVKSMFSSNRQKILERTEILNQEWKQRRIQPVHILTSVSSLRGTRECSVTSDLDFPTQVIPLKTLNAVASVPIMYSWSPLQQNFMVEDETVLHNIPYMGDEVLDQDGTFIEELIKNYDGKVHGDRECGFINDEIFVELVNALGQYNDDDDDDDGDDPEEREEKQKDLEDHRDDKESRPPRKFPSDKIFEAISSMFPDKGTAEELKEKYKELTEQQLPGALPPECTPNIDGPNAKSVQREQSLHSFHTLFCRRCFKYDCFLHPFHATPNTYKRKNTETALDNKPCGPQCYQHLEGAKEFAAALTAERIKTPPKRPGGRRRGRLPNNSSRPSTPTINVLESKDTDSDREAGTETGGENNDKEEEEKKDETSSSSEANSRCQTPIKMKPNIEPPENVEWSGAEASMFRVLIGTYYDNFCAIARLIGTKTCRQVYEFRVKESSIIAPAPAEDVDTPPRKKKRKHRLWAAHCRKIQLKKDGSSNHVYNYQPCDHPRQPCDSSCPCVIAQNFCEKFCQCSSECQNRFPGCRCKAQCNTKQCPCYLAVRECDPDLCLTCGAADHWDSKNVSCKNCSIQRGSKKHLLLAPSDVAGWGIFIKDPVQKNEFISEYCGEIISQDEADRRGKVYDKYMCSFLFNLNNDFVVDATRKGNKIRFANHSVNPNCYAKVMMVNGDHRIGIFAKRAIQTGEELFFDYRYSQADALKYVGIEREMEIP

[2] = Efflux ratio of passive permeability in human Caco2 cells; type: ADME, cell-based; conditions: Caco-2
[3] = target: Histone-lysine N-methyltransferase EZH2 (Homo sapiens, UniProt Q15910, Y641N); assay: Inhibition of EZH2 Y641N mutant (unknown origin)
[4] = Passive permeability from apical to basolateral side in human Caco2 cells; type: ADME, cell-based; conditions: Caco-2, read-out: permeability
[5] = Passive permeability from basolateral to apical side in human Caco2 cells; type: ADME, cell-based; conditions: Caco-2, read-out: permeability
[6] = target: T1, Histone-lysine N-methyltransferase EZH2; assay: Inhibition of EZH2 in human HeLa cells assessed as reduction in H3K27me3 level; type: cell-based
Target sequence in this assay (Q15910 whole entry, looked up): as the sequence (Q15910 whole entry) above

[7] = Growth inhibition of human KARPAS422 cells after 14 days by Cell-Titer luminescence assay; type: functional; conditions: KARPAS-422, 336 h
[8] = Growth inhibition of human KARPAS422 cells after 4 days by Cell-Titer luminescence assay; type: functional; conditions: KARPAS-422, 96 h
[9] = Growth inhibition of human KARPAS422 cells after 10 days by Cell-Titer luminescence assay; type: functional; conditions: KARPAS-422, 240 h
[10] = Growth inhibition of human KARPAS422 cells after 7 days by Cell-Titer luminescence assay; type: functional; conditions: KARPAS-422, 168 h
[11] = Growth inhibition of human KARPAS422 cells after 17 days by Cell-Titer luminescence assay; type: functional; conditions: KARPAS-422, 408 h

Sequence of Histone-lysine N-methyltransferase EZH2 (Homo sapiens, UniProt Q15910, Y641N) (Q15910 whole entry Y641N): as the sequence (Q15910 whole entry) above, with Y641N counted along it

Row | Structure (SMILES) | IC50 [1] [µM] | further results
1 | CC1(C)CC(NC(=O)c2ccc(Oc3ccccc3C#N)cc2Cl)CC(C)(C)N1 | 37 | 
2 | CC1(C)CC(NC(=O)c2ccc(Nc3ccccc3)cc2)CC(C)(C)N1 | > 80 | 
3 | CC1(C)CC(NC(=O)c2ccc(Oc3ccccc3Cl)cc2)CC(C)(C)N1 | 29 | 
4 | CC1(C)CC(NC(=O)c2cc(F)c(Oc3ccccc3C#N)c(Br)c2)CC(C)(C)N1 | 1 | 
5 | Cc1cccc(Oc2ccc(C(=O)NC3CC(C)(C)NC(C)(C)C3)cc2)c1 | 61 | 
6 | CC1(C)CC(NC(=O)c2ccc(C(O)c3ccccc3)cc2)CC(C)(C)N1 (stereo unspecified) | > 80 | 
7 | CC1(C)CC(NC(=O)c2ccc(Oc3ccccc3C#N)c3ccccc23)CC(C)(C)N1 | 0.84 | 
8 | CC1(C)CC(NC(=O)c2ccc(Oc3cccc(-c4ccnnc4)c3C#N)c(Cl)c2)CC(C)(C)O1 | 1.5 | efflux ratio [2]: 1.1; IC50 [3]: 66 µM; Papp A→B [4]: 21.9 ×10⁻⁶ cm/s; Papp B→A [5]: 24.8 ×10⁻⁶ cm/s
9 | CC1(C)CC(NC(=O)c2ccc(Oc3ccccc3OCc3ccccc3)cc2)CC(C)(C)N1 | 3.6 | 
10 | CC1(C)CC(NC(=O)c2ccc(Oc3ccccc3C(C)(C)C)cc2)CC(C)(C)N1 | 7.9 | 
11 | CC1(C)CC(NC(=O)c2ccc(C3(c4ccccc4)CC3)cc2)CC(C)(C)N1 | > 80 | 
12 | CC1(C)CC(NC(=O)c2ccc(Oc3ccccc3C#N)c(Cl)c2)CC(C)(C)N1CCO | 4.9 | IC50 [3]: 62 µM
13 | CC1(C)CC(NC(=O)c2ccc(Oc3ccccc3)cc2)CC(C)(C)N1 | 51 | 
14 | CC(c1ccccc1)c1ccc(C(=O)NC2CC(C)(C)NC(C)(C)C2)cc1 (stereo unspecified) | > 80 | 
15 | CC1(C)CC(NC(=O)c2ccc(S(=O)(=O)c3ccccc3)cc2)CC(C)(C)N1 | > 80 | 
16 | CC1(C)CC(NC(=O)c2ccc(Oc3ccccc3C#N)c(Br)c2)CC(C)(C)N1 | 0.32 | 
17 | CC1(C)CC(NC(=O)c2ccc(Oc3ccccc3C#N)c(Cl)c2)C(F)(F)C(C)(C)N1 (stereo unspecified) | > 80 | IC50 [3]: > 80 µM
18 | CC1CC(NC(=O)c2ccc(Oc3cccc(-c4ccnnc4)c3C#N)c(Cl)c2)CC(C)(C)N1 (stereo unspecified) | 0.871 | IC50 [3]: 10 µM
19 | CC1(C)CC(NC(=O)c2ccc(Oc3cccc(-c4cn[nH]c4)c3C#N)c(Cl)c2)CC(C)(C)N1 | 0.23 | IC50 [3]: 4 µM
20 | Cc1cc(C(=O)NC2CC(C)(C)NC(C)(C)C2)ccc1Oc1ccccc1C#N | 0.92 | 
21 | CC1(C)CC(NC(=O)c2ccc(Oc3cccc(-c4ccncc4)c3C#N)c(Cl)c2)CC(C)(C)N1 | 0.081 | IC50 [3]: 0.56 µM
22 | Cc1ccc(Oc2ccc(C(=O)NC3CC(C)(C)NC(C)(C)C3)cc2)cc1 | > 80 | 
23 | CC1(C)CC(NC(=O)c2ccc(Cc3ccccc3)cc2)CC(C)(C)N1 | > 80 | 
24 | Cc1cc(C(=O)NC2CC(C)(C)NC(C)(C)C2)cc(C)c1Oc1ccccc1C#N | 51 | 

Row | Structure (SMILES) | IC50 [1] [µM] | further results
25 | CC1(C)CC(NC(=O)c2ccc(OCc3ccccc3)cc2)CC(C)(C)N1 | > 80 | 
26 | COc1cc(Oc2ccccc2C#N)ccc1C(=O)NC1CC(C)(C)NC(C)(C)C1 | > 80 | 
27 | CC1(C)CC(NC(=O)c2ccc(Oc3cccc(-c4ccncn4)c3C#N)c(Cl)c2)CC(C)(C)N1 | 0.024 | IC50 [3]: 0.13 µM
28 | CC1(C)CC(NC(=O)c2ccc(C(=O)c3ccccc3)cc2)CC(C)(C)N1 | 57 | 
29 | CC1(C)CC(NC(=O)c2ccc(Oc3ccccc3C#N)c(C#N)c2)CC(C)(C)N1 | 0.93 | 
30 | CC1(C)CC(NC(=O)c2ccc([S+]([O-])c3ccccc3)cc2)CC(C)(C)N1 (stereo unspecified) | > 80 | 
31 | CC1(C)CC(OC(=O)c2ccc(Oc3cccc(-c4ccnnc4)c3C#N)c(Cl)c2)CC(C)(C)N1 | 0.172 | efflux ratio [2]: 2.3; IC50 [3]: 2.5 µM; Papp A→B [4]: 20.4 ×10⁻⁶ cm/s; Papp B→A [5]: 47.7 ×10⁻⁶ cm/s
32 | CN(c1ccccc1)c1ccc(C(=O)NC2CC(C)(C)NC(C)(C)C2)cc1 | > 80 | 
33 | CC1(C)CC(NC(=O)c2ccc(Oc3ccccc3C#N)cc2)CC(C)(C)N1 | 3.4 | 
34 | CC1(C)CC(COc2ccc(Oc3cccc(-c4ccncn4)c3C#N)c(Cl)c2)CC(C)(C)N1 | 0.189 | Activity [6]: > 15 µM; efflux ratio [2]: 4.4; IC50 [3]: 2 µM; Papp A→B [4]: 0.5 ×10⁻⁶ cm/s; Papp B→A [5]: 2.1 ×10⁻⁶ cm/s
35 | Cc1ccccc1Oc1ccc(C(=O)NC2CC(C)(C)NC(C)(C)C2)cc1 | 48 | 
36 | CC1(C)CC(NC(=O)c2ccc(Oc3cccc(-c4ccnnc4)c3C#N)c(Cl)c2)CC(C)(C)N1 |  | GI50 [7]: 13.2 µM; Activity [6]: 7 µM; Papp A→B [4]: 0.19 ×10⁻⁶ cm/s; GI50 [8]: 70 µM; GI50 [9]: 23 µM; Papp B→A [5]: 3.29 ×10⁻⁶ cm/s; GI50 [10]: 24.8 µM; GI50 [11]: 9.1 µM
37 | CC1(C)CC(NC(=O)c2ccc(Oc3ccccc3C#N)cc2F)CC(C)(C)N1 | 15 | 
38 | CC1(C)CC(NC(=O)c2ccc(Oc3ccccc3C#N)c(C3CC3)c2)CC(C)(C)N1 | 0.5 | 
39 | Cc1cccc(Oc2ccc(C(=O)NC3CC(C)(C)NC(C)(C)C3)cc2Cl)c1C#N | 0.14 | IC50 [3]: 1.4 µM
40 | C#Cc1ccccc1Oc1ccc(C(=O)NC2CC(C)(C)NC(C)(C)C2)cc1 | 19 | 
41 | CC1CC(NC(=O)c2ccc(Oc3cccc(-c4ccnnc4)c3C#N)c(Cl)c2)CC(C)N1 (stereo unspecified) | 2.1 | IC50 [3]: 10 µM
42 | CC1(C)CC(NC(=O)c2ccc(COc3ccccc3)cc2)CC(C)(C)N1 | 48 | 
43 | CC1(C)CC(NC(=O)c2ccc(Sc3ccccc3)cc2)CC(C)(C)N1 | 33 | 
44 | CC1(C)CC(NC(=O)c2ccc(Oc3ccccc3C#N)c(F)c2)CC(C)(C)N1 | 1 | 
45 | COc1ccccc1Oc1ccc(C(=O)NC2CC(C)(C)NC(C)(C)C2)cc1 | 59 | 
46 | CC1(C)CC(NC(=O)c2ccc(Oc3cccc(Cl)c3C#N)c(Cl)c2)CC(C)(C)N1 | 0.14 | IC50 [3]: 2.2 µM
47 | CC1(C)CC(NC(=O)c2ccc(Oc3ccccc3C#N)c(Cl)c2)CC(C)(C)N1 | 0.45 | 
